Values of other authors as cited in patent US20040241252A1, “Pharmaceutical compositions for oral administration comprising lithium carbonate, processes of making the same, and methods of administering the same” (priority 2003, published 2004).

Row | time to complete absorption (oral, gastrointestinal tract) | fraction of a single dose eliminated in the urine (single dose) | SMILES | mean absorption half-time (single liquefied dose, volunteers) [h]
1 | about 8 hours | Ninety-five | [Li+] [Li^+, lithium ion] | 
2 |  |  | [Cl-].[Li+] [lithium chloride] | 0.15
